Test results as given in PubChem BioAssay (NCI).
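Five compound concentrations were applied to cells in 96-well plates for 48 hours; endpoints were derived by simple linear interpolation of the resulting dose-response curve. GI50: concentration for 50% inhibition of growth. At the TGI there is no net growth.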 Where a SMILES comes first, the peptide text is derived from it. [ ]: non-standard residue; d: D form. The star is where a group is joined. NMeAc5c = CNC1(C(=O)O)CCCC1; Boc = CC(C)(C)OC(=O)*; OBn = c1ccc(CO*)cc1

What was measured:
Test in all cases: NCI tumour cell line growth inhibition, 48 h
SK-MEL-2 melanoma = test system: SK-MEL-2 melanoma
NCI-H226 lung = test system: NCI-H226 lung
MALME-3M melanoma = test system: MALME-3M melanoma
BT-549 breast = test system: BT-549 breast
NCI-H522 lung = test system: NCI-H522 lung
HS 578T breast = test system: HS 578T breast
HOP-92 NSCLC = test system: HOP-92 NSCLC

Row | Compound | TGI (SK-MEL-2 melanoma) | TGI (NCI-H226 lung) | TGI (MALME-3M melanoma) | TGI (BT-549 breast) | TGI (NCI-H522 lung) | TGI (HS 578T breast) | TGI (HOP-92 NSCLC) | GI50 (SK-MEL-2 melanoma) | GI50 (HOP-92 NSCLC) | GI50 (NCI-H522 lung)
1 | N#Cc1c(-c2ccccc2)/c(=C\Nc2cccc(C(F)(F)F)c2)c(=O)n2c1nc1ccccc12 | > 100 µM | 80.9 µM | > 100 µM | > 100 µM | 32.1 µM | – | – | – | – | –
2 | CC[C@@H]1CC[C@@H]2[C@H](CC[C@]3(C)[C@@H](OC(C)=O)CC[C@@H]23)[C@H]1COC(C)=O | 34.5 µM | 52.5 µM | 35.8 µM | 87.9 µM | 56.1 µM | > 100 µM | 69.8 µM | – | – | –
3 | COc1cc2nc3n(c(=O)c2cc1OC)-c1ccc([N+](=O)[O-])cc1C3=O | > 100 µM | > 100 µM | > 100 µM | > 100 µM | > 100 µM | > 100 µM | > 100 µM | – | – | –
4 | Nn1c(-c2ccccc2)nn(C(=O)c2ccccc2)c1=O | – | > 100 µM | > 100 µM | > 100 µM | > 100 µM | > 100 µM | > 100 µM | – | – | –
5 | COC(=O)c1c(C)cccc1C1CN=NC12Cc1ccc(C)cc1C2=O (stereo not drawn) | – | > 100 µM | > 100 µM | – | 91.9 µM | > 100 µM | > 100 µM | – | – | –
6 | CN(C(=O)C(Cc1ccccc1)NC(=O)OC(C)(C)C)C1(C(=O)NC(Cc2ccccc2)C(=O)OCc2ccccc2)CCCC1 (stereo not drawn) (Boc-Phe-[NMeAc5c]-Phe-OBn; configuration not given here) | > 100 µM | > 100 µM | > 100 µM | > 100 µM | – | > 100 µM | > 100 µM | – | – | –
7 | CCOC(=O)c1cn2c(n1)sc1cccc(C)c12 | – | > 100 µM | > 100 µM | > 100 µM | > 100 µM | > 100 µM | – | – | – | –
8 | O=C1CCCSC(=O)N1Cc1ccccc1 | > 100 µM | > 100 µM | > 100 µM | – | > 100 µM | > 100 µM | > 100 µM | – | – | –
9 | Cc1nc2n(c1/C=C1/C(=O)Nc3cccc(Cl)c31)CCS2 | 51.8 µM | – | > 100 µM | 98.7 µM | > 100 µM | 53.9 µM | 66.8 µM | – | – | –
10 | c1csc(-c2ccc(-c3cccc4nsnc34)s2)c1 | > 100 µM | > 100 µM | > 100 µM | > 100 µM | > 100 µM | – | – | – | – | –
11 | N#CCCC1C(C#N)C2(Cl)CC1(Cl)C(Cl)=C2Cl (stereo not drawn) | > 10 µM | > 10 µM | > 10 µM | – | > 10 µM | > 10 µM | – | – | – | –
12 | CCOC(=O)C(SCCO)C(C(=O)OCC)n1cnc2c(=O)[nH]c(NC(C)=O)nc21 (stereo not drawn) | > 100 µM | > 100 µM | > 100 µM | > 100 µM | > 100 µM | > 100 µM | > 100 µM | – | – | –
13 | CC(C)=CCc1c2c(c3occ(-c4ccc(O)cc4)c(=O)c3c1O)CC(C(C)(C)O)O2 (stereo not drawn) | 28.1 µM | 43 µM | 36.3 µM | 31 µM | 34 µM | 69.5 µM | 33.5 µM | – | – | –
14 | c1ccc(N=c2sc3ccccc3nc2Nc2ccccc2)cc1 | > 100 µM | > 100 µM | > 100 µM | – | > 100 µM | > 100 µM | > 100 µM | – | – | –
15 | C[C@]12CCC(O)CC1=CC[C@@H]1[C@@H]2CC[C@]2(C)C(=O)[C@H](n3ccnc3)C[C@@H]12 (stereo partly drawn) | > 100 µM | > 100 µM | > 100 µM | – | > 100 µM | > 100 µM | > 100 µM | – | – | –
16 | COCO[C@@H]1C[C@H]2C(=O)Nc3ccccc3C(=O)N2C1 | > 100 µM | > 100 µM | > 100 µM | > 100 µM | 37.5 µM | > 100 µM | – | – | – | –
17 | N#Cc1c(N2CCCC2)ncn(-c2ccccc2)c1=O | > 100 µM | > 100 µM | > 100 µM | – | > 100 µM | > 100 µM | > 100 µM | – | – | –
18 | Cc1ccc([N+](=O)[O-])cc1NC1=NCCO1 | > 100 µM | > 100 µM | > 100 µM | – | > 100 µM | > 100 µM | – | – | – | –
19 | CC1CCC(n2c3cnccc3c3cnc(Nc4ccc5c(n4)CCN(C(=O)CO)C5)nc32)CC1 (stereo not drawn) | > 100 µM | – | – | – | > 100 µM | – | > 100 µM | > 100 µM | > 100 µM | > 100 µM
20 | c1ccc(-c2nc(-c3ccccc3SSc3ccccc3-c3nc(-c4ccccc4)nn3-c3ccccc3)n(-c3ccccc3)n2)cc1 | – | > 100 µM | > 100 µM | > 100 µM | – | > 100 µM | > 100 µM | – | – | –
21 | S=C1Nc2ccccc2SC1c1ccccc1 (stereo not drawn) | – | > 100 µM | > 100 µM | > 100 µM | > 100 µM | 83.2 µM | – | – | – | –
22 | [N-]=[N+]=NC[C@H]1OCO[C@H](CN=[N+]=[N-])[C@@H](OCCOCCCl)[C@@H]1OCCOCCCl | > 100 µM | > 100 µM | > 100 µM | > 100 µM | > 100 µM | > 100 µM | – | – | – | –
23 | ClCCN1CCC2(CC1)SSC1(CCN(CCCl)CC1)S2 | > 100 µM | – | 73.6 µM | > 100 µM | – | > 100 µM | 29.2 µM | – | – | –
24 | O=[N+]([O-])c1cccc(-c2csc(NNC3=NC/C(=C/c4ccc5c(c4)OCO5)S3)n2)c1 | 56.5 µM | 43.3 µM | – | > 100 µM | 42.9 µM | 69.7 µM | 43.7 µM | – | – | –
25 | C[C@@H](NC(=O)[C@@H]1C[C@]1(C)COC(=O)c1cc([N+](=O)[O-])cc([N+](=O)[O-])c1)c1cccc2ccccc12 | > 100 µM | > 100 µM | 51 µM | > 100 µM | – | > 100 µM | > 100 µM | – | – | –
26 | COC(CCC[N+](C)(C)C)CC[N+](C)(C)C (stereo not drawn) | – | > 100 µM | > 100 µM | > 100 µM | > 100 µM | – | – | – | – | –
27 | Cc1cn2c(/C=N/N=C(N)N)c(-c3cccc([N+](=O)[O-])c3)nc2s1 | – | – | 3.94 µM | 3.3 µM | 3.91 µM | 5.19 µM | 3.35 µM | – | – | –
28 | Cc1cc(Cc2cc(C)c(N)cc2N)c(N)cc1N | > 100 µM | > 100 µM | – | > 100 µM | > 100 µM | – | – | – | – | –
29 | COc1cc(C(=O)N(C(=S)OCc2ccccn2)c2ccccc2)cc(OC)c1OC | > 100 µM | > 100 µM | 62 µM | > 100 µM | – | > 100 µM | – | – | – | –
